# Where “and” joins values, the source holds several entries; their conditions need not be identical. Equal entries are not always repeated.
# Test system: CT26 murine colon carcinoma cells
# Test: CT26 Tumor Size Assay (Example 2)
# Type: in vivo, BALB/c mice
# Conditions: for Median TTE: 39-day study
# Protocol: The animals were fed ad libitum water (reverse osmosis, 1 ppm CI) and NIH 31 Modified and Irradiated Lab Diet® consisting of 18.0% crude protein, 5.0% crude fat, and 5.0% crude fiber. The mice were housed on irradiated Enrich-o'Cobs™ bedding in static microisolators on a 12-hour light cycle at 20-22° C. (68-72° F.) and 40-60% humidity.
# CT26 murine colon carcinoma cells were grown in RPMI-1640 medium containing 10% fetal bovine serum, 2 mM glutamine, 100 units/mL penicillin G sodium, 100 μg/mL streptomycin sulfate, and 25 μg/mL gentamicin. The cells were cultured in tissue culture flasks in a humidified incubator at 37° C., in an atmosphere of 5% CO2 and 95% air.
# The CT26 colon cells used for implantation were harvested during log phase growth and re-suspended in cold PBS. Each mouse was injected subcutaneously in the right flank with 3×10^5 tumor cells (0.1 mL cell suspension) and tumors were monitored as their volumes approached the target range of 75 to 125 mm3. Fourteen days after tumor implantation, on Day 1 of the study, animals with individual tumor volumes ranging from 75 to 125 mm^3 were sorted into fourteen groups (n=10) with group mean tumor volumes of 118-119 mm3. Tumors were measured with calipers twice weekly in two dimensions.
# where w=width and l=length, in mm, of a tumor. Tumor weight was estimated with the assumption that 1 mg is equivalent to 1 mm3 of tumor volume.
# The compound of formula (I), rat IgG2a (Clone 2A3) (5.55 mg/mL), anti-mCD40 (Clone FGK45) (5.46 mg/mL, purchased from BioXCell, anti-mouse CD40, Clone: FGK45, SKU: 13E0016-2, Lot No. 4699/0614B), and anti-CSF1R (5.41 mg/mL, purchased from BioXCell anti-mouse CSF1R (CD115), Clone: AFS98, SKU: BE0213, Lot No. 5248/0814) were used as test compounds, alone and in combination. The compound of formula (I) was stored at room temperature and antibody stock solutions were stored at 4° C. upon receipt.
# Each week of dosing, the compound of formula (I) was dissolved in 0.5% HPMC to yield a 1.0 mg/mL dosing solution. The dosing solution was stored at 4° C., protected from light. The rat IgG2a isotype and anti-CSF1R dosing solutions were prepared fresh each day by diluting aliquots of the stock solutions with PBS to yield 1.0 mg/mL dosing solutions. The dosing solutions were stored at 4° C., protected from light. The anti-mCD40 dosing solution was prepared fresh each day by diluting an aliquot of the stock solution with PBS to yield a 0.5 mg/mL dosing solution. The dosing solution was stored at 4° C., protected from light.
# On Day 1 of the study, fourteen groups of BALB/c mice (n=10) began dosing according to the following protocol.
# The vehicle (0.5% HPMC) and the compound of formula (I) were administered orally (p.o.). The rat IgG2a isotype control, anti-mCD40, and anti-CSF1R were administered intraperitoneally (i.p.). Rat IgG2a(2A3), the compound of formula (I) and the anti-CSF1R were administered at 10 mg/kg. The anti-mCD40 was administered at 5 mg/kg. The dosing volume for all animals was 10 mL/kg (0.2 mL per 20-g mouse) and was adjusted for body weight.
# Tumors were measured using calipers twice per week. The study endpoint was originally defined as a mean tumor volume of 1500 mm^3 in the control group or 60 days, whichever came first. Day 15 was chosen for TGI analysis. The MTV (n), the median tumor volume for the number of animals, n, on Day 15, was determined for each group. Percent tumor growth inhibition (% TGI) was defined as the difference between the MTV of the designated control group (Group 1) and the MTV of the drug-treated group, expressed as a percentage of the MTV of the control group: […]
# The data set for TGI analysis includes all animals in a group, except those that die due to treatment-related (TR) or non-treatment-related (NTR) causes.
# Animals were monitored individually for tumor growth until Day 39. The study protocol specified a tumor growth delay assay based on the median time-to-endpoint (TTE) in a treated group versus the control group. […]
# [1] = Groups 3-7: all dosing from Day 1 (antibodies i.p. Days 1, 5, 9, formula (I) p.o. bid×14), formula (I) and anti-CSF1R 10 mg/kg, anti-mCD40 5 mg/kg, vs rat IgG2a control Group 1
# [2] = Groups 9, 11, 13, 14: formula (I) 10 mg/kg p.o. bid×14 beginning Day 4 or anti-CSF1R 10 mg/kg i.p. Days 4, 8, 12, in combinations anti-mCD40 5 mg/kg i.p. Days 1, 5, 9, vs rat IgG2a control Group 1
structure (smiles),measurement,setting,value
"CC1(C)CC=C(c2nc(C3CC(C)(C)OC(C)(C)C3)ccc2NC(=O)c2nc(C#N)c[nH]2)CC1 [compound of formula (I), 4-cyano-N-(2-(4,4-dimethylcyclohex-1-en-1-yl)-6-(2,2,6,6-tetramethyltetrahydro-2H-pyran-4-yl)pyridin-3-yl)-1H-imidazole-2-carboxamide]",MTV (n) Day 15,"Day 15, Groups 3-7: all dosing from Day 1 (antibodies i.p. Days 1, 5, 9, formula (I) p.o. bid×14), formula (I) and anti-CSF1R 10 mg/kg, anti-mCD40 5 mg/kg",1913 mm^3
same,MTV (n) Day 15,"Day 15, Groups 9, 11, 13, 14: formula (I) 10 mg/kg p.o. bid×14 beginning Day 4 or anti-CSF1R 10 mg/kg i.p. Days 4, 8, 12, in combinations anti-mCD40 5 mg/kg i.p. Days 1, 5, 9",1545 mm^3 and 1545 (8) mm^3
same,% TGI,"Day 15, vs rat IgG2a control Group 1, Groups 3-7: all dosing from Day 1 (antibodies i.p. Days 1, 5, 9, formula (I) p.o. bid×14), formula (I) and anti-CSF1R 10 mg/kg, anti-mCD40 5 mg/kg",23%
same,% TGI,"Day 15, vs rat IgG2a control Group 1, Groups 9, 11, 13, 14: formula (I) 10 mg/kg p.o. bid×14 beginning Day 4 or anti-CSF1R 10 mg/kg i.p. Days 4, 8, 12, in combinations anti-mCD40 5 mg/kg i.p. Days 1, 5, 9",38%
same,Median TTE,"Groups 3-7: all dosing from Day 1 (antibodies i.p. Days 1, 5, 9, formula (I) p.o. bid×14), formula (I) and anti-CSF1R 10 mg/kg, anti-mCD40 5 mg/kg, 1500 mm^3 endpoint",13.0 days
same,% TGD,[1],7%
same,T-C,[1],0.9 days
same,Median TTE,"Groups 9, 11, 13, 14: formula (I) 10 mg/kg p.o. bid×14 beginning Day 4 or anti-CSF1R 10 mg/kg i.p. Days 4, 8, 12, in combinations anti-mCD40 5 mg/kg i.p. Days 1, 5, 9, 1500 mm^3 endpoint",13.9 days
same,% TGD,[2],15%
same,T-C,[2],1.8 days
